Laboratory results published in PubChem BioAssay (NCI).
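The compound was tested at five concentrations on cells cultured in 96-well plates, with a 48-hour exposure period. GI50: concentration for 50% inhibition of growth. Definition used: TGI = concentration required for complete inhibition of growth.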

Columns and labels:
Experiment in all cases: NCI anticancer screen, dose series, 48 h
T-47D breast = test system: T-47D breast
HCT-15 colon = test system: HCT-15 colon
PC-3 prostate = test system: PC-3 prostate
RPMI-8226 leukemia = test system: RPMI-8226 leukemia
SW-620 colon = test system: SW-620 colon
SNB-19 CNS = test system: SNB-19 CNS
ACHN renal = test system: ACHN renal
786-0 renal = test system: 786-0 renal
MDA-MB-435 = test system: MDA-MB-435
HCT-116 colon = test system: HCT-116 colon
NCI-H522 lung = test system: NCI-H522 lung
OVCAR-4 ovarian = test system: OVCAR-4 ovarian
OVCAR-8 ovarian = test system: OVCAR-8 ovarian
OVCAR-3 ovarian = test system: OVCAR-3 ovarian
HT29 colon = test system: HT29 colon
MALME-3M melanoma = test system: MALME-3M melanoma
RXF 393 renal = test system: RXF 393 renal
SK-MEL-28 melanoma = test system: SK-MEL-28 melanoma
HOP-92 NSCLC = test system: HOP-92 NSCLC
SK-MEL-5 melanoma = test system: SK-MEL-5 melanoma
DU-145 prostate = test system: DU-145 prostate
MOLT-4 leukemia = test system: MOLT-4 leukemia
LOX IMVI melanoma = test system: LOX IMVI melanoma
COLO 205 colon = test system: COLO 205 colon
UO-31 renal = test system: UO-31 renal
HS 578T breast = test system: HS 578T breast
M14 melanoma = test system: M14 melanoma
KM12 colon = test system: KM12 colon
MDA-MB-468 breast = test system: MDA-MB-468 breast
MCF7 breast = test system: MCF7 breast
SF-539 CNS = test system: SF-539 CNS
SF-295 CNS = test system: SF-295 CNS
HCC-2998 colon = test system: HCC-2998 colon
SF-268 CNS = test system: SF-268 CNS
U251 CNS = test system: U251 CNS
SN12C renal = test system: SN12C renal
SK-OV-3 ovarian = test system: SK-OV-3 ovarian
HL-60(TB) leukemia = test system: HL-60(TB) leukemia
A498 renal = test system: A498 renal
UACC-257 melanoma = test system: UACC-257 melanoma
NCI-H23 lung = test system: NCI-H23 lung
NCI-H460 lung = test system: NCI-H460 lung
SK-MEL-2 melanoma = test system: SK-MEL-2 melanoma
UACC-62 melanoma = test system: UACC-62 melanoma
A549 NSCLC = test system: A549 NSCLC
HOP-62 NSCLC = test system: HOP-62 NSCLC
IGROV1 ovarian = test system: IGROV1 ovarian
CAKI-1 renal = test system: CAKI-1 renal
K-562 leukemia = test system: K-562 leukemia
TK-10 renal = test system: TK-10 renal
MDA-MB-231 breast = test system: MDA-MB-231 breast
SNB-75 CNS = test system: SNB-75 CNS
CCRF-CEM leukemia = test system: CCRF-CEM leukemia
BT-549 breast = test system: BT-549 breast
NCI-H226 lung = test system: NCI-H226 lung
EKVX NSCLC = test system: EKVX NSCLC
SR leukemia = test system: SR leukemia
OVCAR-5 ovarian = test system: OVCAR-5 ovarian

CNC(=O)c1cccc(NC(=O)c2ccc3c(c2)nnn3/C(C#N)=C/c2ccccn2)c1
GI50 (T-47D breast): 2.31 µM
TGI (T-47D breast): 7.38 µM
GI50 (HCT-15 colon): 10.8 µM
TGI (HCT-15 colon): 23.6 µM
GI50 (PC-3 prostate): 19.2 µM
TGI (PC-3 prostate): 48 µM
GI50 (RPMI-8226 leukemia): 10.4 µM
TGI (RPMI-8226 leukemia): 52.1 µM
GI50 (SW-620 colon): 1.87 µM
TGI (SW-620 colon): 3.75 µM
GI50 (SNB-19 CNS): 18.6 µM
TGI (SNB-19 CNS): 38.9 µM
GI50 (ACHN renal): 13.7 µM
TGI (ACHN renal): 26.8 µM
GI50 (786-0 renal): 2.38 µM
TGI (786-0 renal): 7.7 µM
GI50 (MDA-MB-435): 7.69 µM
TGI (MDA-MB-435): 21.4 µM
GI50 (HCT-116 colon): 2.74 µM
TGI (HCT-116 colon): 10.1 µM
GI50 (NCI-H522 lung): 1.61 µM
TGI (NCI-H522 lung): 3.14 µM
GI50 (OVCAR-4 ovarian): 15.7 µM
TGI (OVCAR-4 ovarian): 29.4 µM
GI50 (OVCAR-8 ovarian): 15.3 µM
TGI (OVCAR-8 ovarian): 29.8 µM
GI50 (OVCAR-3 ovarian): 3.11 µM
TGI (OVCAR-3 ovarian): 10.2 µM
GI50 (HT29 colon): 10.5 µM
TGI (HT29 colon): 31.1 µM
GI50 (MALME-3M melanoma): 1.85 µM
TGI (MALME-3M melanoma): 3.94 µM
GI50 (RXF 393 renal): 4.88 µM
TGI (RXF 393 renal): 16.9 µM
GI50 (SK-MEL-28 melanoma): 1.95 µM
TGI (SK-MEL-28 melanoma): 4.33 µM
GI50 (HOP-92 NSCLC): 11.6 µM
TGI (HOP-92 NSCLC): 27.3 µM
GI50 (SK-MEL-5 melanoma): 14.1 µM
TGI (SK-MEL-5 melanoma): 27.4 µM
GI50 (DU-145 prostate): 15.3 µM
TGI (DU-145 prostate): 29 µM
GI50 (MOLT-4 leukemia): 3.51 µM
TGI (MOLT-4 leukemia): 39 µM
GI50 (LOX IMVI melanoma): 1.86 µM
TGI (LOX IMVI melanoma): 3.9 µM
GI50 (COLO 205 colon): 2.63 µM
TGI (COLO 205 colon): 6.7 µM
GI50 (UO-31 renal): 12.7 µM
TGI (UO-31 renal): 25.3 µM
GI50 (HS 578T breast): 12.6 µM
TGI (HS 578T breast): 38.1 µM
GI50 (M14 melanoma): 10.9 µM
TGI (M14 melanoma): 23 µM
GI50 (KM12 colon): 16.5 µM
TGI (KM12 colon): 46.9 µM
GI50 (MDA-MB-468 breast): 1.71 µM
TGI (MDA-MB-468 breast): 3.43 µM
GI50 (MCF7 breast): 3.46 µM
TGI (MCF7 breast): 15.6 µM
GI50 (SF-539 CNS): 13.8 µM
TGI (SF-539 CNS): 26.9 µM
GI50 (SF-295 CNS): 19.7 µM
TGI (SF-295 CNS): 39.5 µM
GI50 (HCC-2998 colon): 16.1 µM
TGI (HCC-2998 colon): 29.8 µM
GI50 (SF-268 CNS): 17.9 µM
TGI (SF-268 CNS): 41.4 µM
GI50 (U251 CNS): 15.3 µM
TGI (U251 CNS): 32.2 µM
GI50 (SN12C renal): 16.4 µM
TGI (SN12C renal): 30.3 µM
GI50 (SK-OV-3 ovarian): 30.2 µM
TGI (SK-OV-3 ovarian): > 100 µM
GI50 (HL-60(TB) leukemia): 3.21 µM
TGI (HL-60(TB) leukemia): 24.2 µM
GI50 (A498 renal): 18.6 µM
TGI (A498 renal): 41.1 µM
GI50 (UACC-257 melanoma): 8.21 µM
TGI (UACC-257 melanoma): 21.2 µM
GI50 (NCI-H23 lung): 13.4 µM
TGI (NCI-H23 lung): 26.8 µM
GI50 (NCI-H460 lung): 15.7 µM
TGI (NCI-H460 lung): 34.1 µM
GI50 (SK-MEL-2 melanoma): 12.8 µM
TGI (SK-MEL-2 melanoma): 25.9 µM
GI50 (UACC-62 melanoma): 14 µM
TGI (UACC-62 melanoma): 27.7 µM
GI50 (A549 NSCLC): 22.1 µM
TGI (A549 NSCLC): 60 µM
GI50 (HOP-62 NSCLC): 17.9 µM
TGI (HOP-62 NSCLC): 41.2 µM
GI50 (IGROV1 ovarian): 13.6 µM
TGI (IGROV1 ovarian): 27.5 µM
GI50 (CAKI-1 renal): 6.37 µM
TGI (CAKI-1 renal): 19.9 µM
GI50 (K-562 leukemia): 3.11 µM
TGI (K-562 leukemia): > 100 µM
GI50 (TK-10 renal): 14 µM
TGI (TK-10 renal): 27.6 µM
GI50 (MDA-MB-231 breast): 11.8 µM
TGI (MDA-MB-231 breast): 24.7 µM
GI50 (SNB-75 CNS): 17.7 µM
TGI (SNB-75 CNS): 92.4 µM
GI50 (CCRF-CEM leukemia): 3.71 µM
TGI (CCRF-CEM leukemia): 38.4 µM
GI50 (BT-549 breast): 1.95 µM
TGI (BT-549 breast): 5.59 µM
GI50 (NCI-H226 lung): 14.3 µM
TGI (NCI-H226 lung): 29.2 µM
GI50 (EKVX NSCLC): 15.8 µM
TGI (EKVX NSCLC): 30.2 µM
GI50 (SR leukemia): 2.76 µM
TGI (SR leukemia): > 100 µM
GI50 (OVCAR-5 ovarian): 15.7 µM
TGI (OVCAR-5 ovarian): 29.3 µM
